Here are results for 2 molecules from patent publication US11241436B2, “Autophagy inducers for treatment of CNS conditions” (Northwestern University, priority 2017, dated 2022).

Where two headings read alike, the source gives them in different places.

Data set [1] has as its system Beclin 2-GASP1 interaction. As to the kind of experiment: Coimmunoprecipitation of endogenous GASP1 with Flag-human Beclin 2 in HEK293 cells. The note with it: 3 h. The data set is classed as cell-based. An excerpt: (§1) Based on this model, the effect of these inducers on the Beclin 2-GASP1 interaction in vitro and in mouse brain were subsequently examined.
For a further data set, the system named is Beclin 2-GASP1 binding. As to the kind of experiment: Coimmunoprecipitation of endogenous GASP1 with endogenous Beclin 2 from mouse brain lysates. The note with it: injection to WT mice. The format is in vivo.
Excerpt: Lysates in each group were pooled from 3 mice.
as §1

In another data set the test system is Aβ42. Put plainly: Dot blot assay of Aβ42 in brain of 5XFAD mice. The data set is classed as in vivo, mouse. As for the experimental part: Total protein loading was labeled by Ponceau S. N=5. **, P<0.01, t test.
Total protein loading was labeled by Ponceau S. Triplicate experiments from 4-5 mice in each group were shown. Results represent mean±s.e.m. NS, not significant; *, P<0.05; **, P<0.01; ***, P<0.001, t test.
Total protein loading was labeled by Ponceau S. Triplicate experiments from 4 mice in each group were shown.
Dot blot assay. Snap frozen hemi-brain were homogenized in 800 μl phosphate-buffered saline (PBS; Sigma-Aldrich, D8537) with 1% Triton X-100 supplemented with halt proteinase inhibitor cocktail (ThermoFisher Scientific), and halt phosphatase inhibitor cocktail (ThermoFisher Scientific). Protein concentration was quantified using BCA Assay (Pierce). For Af342 dot blots, 10 mg/ml brain homogenates were extracted in guanidine buffer (5 M guanidine-HCl [GuHCl], 50 mM Tris HCl pH 8.0) overnight at room temperature. One μl of sample was spotted in triplicate on 0.2 μm nitrocellulose membrane, and dried for 1 h at 37° C. The membrane was stained with Ponceau S, and the dot blot signal on the membrane was detected by immunostaining with Aβ42 antibody (Invitrogen, 700254, 1:1000) and HRP-conjugated secondary antibody (Santa Cruz Biotechnology, sc2004, 1:2000). Aβ42 signals were normalized to the Ponceau S staining. To separate soluble and insoluble Aβ fractions, 10 mg/ml of the total homogenated brains were centrifuged at 14000 rpm, 4° C. for 30 min. The supernatant (soluble fraction) was used directly for dot blot assays. The pellet (insoluble fraction) was extracted in guanidine buffer overnight at room temperature, and used in dot blot analyses. […] One μl of each sample was spotted on nitrocellulose membrane for dot blot analysis.

The subject of data set [2] is WT primary cortical neurons. Put plainly: TUNEL assay of primary cortical neurons treated with conditioned media of APP-HEK293 cells. The data set is classed as cell-based, mouse. The procedure:
Nuclei were stained with DAPI. Scale bar, 100 μm. N=10 fields (each field containing 20-30 neurons).
TUNEL assays. APP-HEK293 cells were cultured in 6-well dishes for 24 h and then the media was replaced with neuronal culture media. After 48 h, conditioned media was collected and used to treat primary cortical neurons (12 DIV) cultured on poly-L-lysine coated slides for another 24 h. Apoptotic neurons were detected by the In Situ Cell Death Detection Kit, TMR red (Roche, cat. #12156792910) according to the manufacturer's instructions. Nuclei were stained using the mounting medium containing DAPI (Vectashield). Quantification of red TUNEL-positive neurons was done using the NIS Elements software.

The test system of data set [3] is 5XFAD mice. As to the kind of experiment: Morris water maze test of 5XFAD mice. The data set is classed as in vivo, mouse. The procedure:
Escape latency and total distance traveled in visible platform test and hidden platform test are shown. N=10-11. Results represent mean±s.e.m. Two-way repeated measures ANOVA.
Escape latency and total distance traveled in visible platform test and hidden platform test are shown. Results represent mean±s.e.m. Statistics were analyzed by the IBM SPSS Statistics Tools comparing differences between 2 curves.
Morris water maze testing. For animal behavior, 6-month old mice were tested. The Morris water maze test consists of two sections: the visible platform testing and hidden platform testing. During the tests, mice were placed in the water tank filled with opaque water (maintained at 25° C.), with their heads facing toward the tank wall. In the visible platform section, a black platform extending 2 cm above the water level was used for these trials. For each trial, the platform was randomly positioned, and the mouse was placed in the tank at different start positions. The trial was stopped after the mouse found and climbed onto the platform, and the escape latency was recorded. […] Mice were tested for 4 days with eight trials per day. In the hidden platform section, a transparent platform underneath the water level was used instead of the black one during all trials, mice were tested with a fixed platform location over 5 days period with six trials per day, and they were allowed to search the platform in 60 s. In the tests, two parameters were evaluated: the trail duration (s) and distance to the platform (m).

The subject of another data set is amyloid plaques. Put plainly: Amyloid plaques stained by thioflavin S or Aβ42 antibody in brain of 5XFAD mice. The format is in vivo, mouse. The procedure:
Scale bar: 500 μm. Results represent mean±s.e.m. N=6-8. *, P<0.05; **, P<0.01, t test.
Immunofluorescence microscopy. Paraformaldehyde-fixed brain tissues were sectioned at 30 μm thickness. Free-floating sagittal sections were immunostained with 1% thioflavin S (Sigma-Aldrich, 230456) for 20 minutes. Additional sections were immunostained with Aβ (Invitrogen, 700254, 1:500) and Alexa Fluro 594 goat anti rabbit (ThermoFisher Scientific, Al 1012). Sections were mounted on slides with mounting medium containing DAPI (Vectashield) and then analyzed by fluorescence microscopy under the 10× objective.

In data set [4] the test system is 5XFAD mice. As to the kind of experiment: Contextual fear conditioning test of 5XFAD mice. The format is in vivo, mouse. As to conditions: Rg2 for 4 months. The procedure:
Fear conditioning training exposed mice to 2-s electrical foot shocks separated by 1-min interval through a grid floor at the bottom of the chamber. On the following day, the mice were returned to the same chamber and their movements were recorded with a video camera to test for contextual conditioning. Freezing (very low levels of movement) in the training environment indicate context-associated fear. WT mice without APP transgene were used as negative control in the above studies. N=8. *, P<0.05; **, P<0.01, t test.

For data set [5] the following is noted: mouse, in vivo.
The conditions of data set [6]: mouse.
In data set [7] the test system is HeLa cell lines expressing HTT.
For data set [8], the system named is 5XFAD mice. Put plainly: Open-field test of 5XFAD mice. The format is in vivo, mouse. As to conditions: Rg2-treated vs vehicle-treated 5XFAD mice.
[9] abbreviates: 6-month old 5XFAD mice, ML246 5 mg/kg i.p. for 5 weeks.

For `N=c1c2c(-c3ccccc3)c(-c3ccccc3)n(Cc3ccccc3)c2ncn1[C@H]1CC[C@H](O)CC1` [ML246], the “coimmunoprecipitation of endogenous GASP1 by Beclin 2” value in [1] is recorded as “potently blocked”. Besides, in the data set with Beclin 2-GASP1 binding, the “binding between endogenous Beclin 2 and endogenous GASP1” value is listed as “dramatically decreased”. In the data set with Aβ42 (setting [9]), the “insoluble Aβ42 in brain” value is on record as “decreased levels” and the “soluble Aβ42 in brain” value is recorded as “decreased levels”. For the same molecule, the “effect on brain Aβ42” value with Aβ42 (autophagy-deficient 5XFAD Becn1+/− KO mice, ML246 5 weeks) is reported as “abolished”. Besides, in data set [2] (conditioned media from ML246-treated APP-HEK293 cells vs vehicle-treated), the “apoptotic cell death of neurons” value is reported as “lower level”. In addition, the “ML246-mediated reduction of apoptotic neuronal death” value in data set [2] (siRNA knockdown of ATG7 in APP-HEK293 cells) was “reversed”. Further, the “performance during the hidden platform trials” value in the data set on 5XFAD mice [3] (6-month old 5XFAD mice, ML246 daily for 5 weeks) was “improved the performance”. Besides, the amyloid plaques result with amyloid plaques (5XFAD mice, 5 weeks of ML246) was “trend of plaque reduction”.
As for `CC(C)=CCC[C@](C)(O)[C@H]1CC[C@]2(C)[C@@H]1[C@H](O)C[C@@H]1[C@@]3(C)CC[C@H](O)C(C)(C)[C@@H]3[C@@H](O[C@@H]3O[C@H](CO)[C@@H](O)[C@H](O)[C@H]3O[C@@H]3O[C@@H](C)[C@H](O)[C@@H](O)[C@H]3O)C[C@]12C` [Rg2, ginsenoside Rg2], in the data set on 5XFAD mice [4], the “freezing responses (contextual fear memory)” value is “rescued the freezing responses”. In data set [5], the food intake entry is on record as “does not alter”. Further, the results for the “percentage bound by plasma protein” value in data set [6] (10 μg/ml), in data set [6] (50 μg/ml) and in data set [6] (100 μg/ml) were “approximately 42%”, about 24% and about 15%, respectively. Moreover, the cell viability result in data set [7] is listed as “grew as well as the control cells”. Further, in the data set with 5XFAD mice [8], the “locomotor activity (distance travelled)” value was “no rescue”. The “binding between endogenous Beclin 2 and endogenous GASP1” value in the data set on Beclin 2-GASP1 binding is listed as “dramatically decreased”. Moreover, the “level of brain Aβ42” value in the data set with Aβ42 (Rg2 injection for 16 weeks in 2 month-old male 5XFAD mice vs vehicle (DMSO)) was “effectively decreased”. Besides, in the data set with 5XFAD mice [3] (5XFAD mice, Rg2 for 4 months), the “escape latency and distance, hidden platform” value is “significantly improved performance”. For the same molecule, the “escape latency or distance, visible platform” value in the data set on 5XFAD mice [3] (WT, vehicle-treated and Rg2-treated mice) is on record as “no significant difference”. For the same molecule, in the data set with amyloid plaques (Rg2-treated 5XFAD mice, thioflavin or Aβ42 antibody), the “number of amyloid plaques” value was “significantly fewer number”.
